Literature values in US20090186081A1, “Disintegrating Loadable Tablets” (LifeCycle Pharma A/S, priority 2006, published 2009).
Where a name gives a salt, the structure may show the parent alone. Read-outs that look alike come from different tables or passages of the source.

Key:
[1] = not given; remark: listed apart in the source
[2] = Table 1, Poorly-Soluble Drug Candidates
[3] = Table 2, Poorly-Soluble Drugs with Low Bioavailability

Structure (SMILES)	Solubility In Water [2]	Solubility In Water [3]	further results
CC[C@H](C)C(=O)O[C@H]1C[C@@H](C)C=C2C=C[C@H](C)[C@H](CC[C@@H]3C[C@@H](O)CC(=O)O3)[C@H]21 [Lovastatin]	Insoluble	Insoluble	–
CC(=O)O[C@H]1C(=O)[C@@]2(C)[C@H]([C@H](OC(=O)c3ccccc3)[C@]3(O)C[C@H](OC(=O)[C@H](O)[C@@H](NC(=O)c4ccccc4)c4ccccc4)C(C)=C1C3(C)C)[C@]1(OC(C)=O)CO[C@@H]1C[C@@H]2O [Paclitaxel]	Insoluble	–	–
COC(=O)C1=C(C)NC(C)=C(C(=O)OC(C)C)C1c1cccc2nonc12 (stereo not shown) [Isradipine]	Insoluble	Insoluble	–
CC(C)Cc1ccc(C(C)C(=O)O)cc1 (stereo not shown) [Ibuprofen]	Insoluble	–	–
COc1cc([C@@H]2c3cc4c(cc3[C@@H](O[C@@H]3O[C@@H]5CO[C@@H](C)O[C@H]5[C@H](O)[C@H]3O)[C@H]3COC(=O)[C@H]23)OCO4)cc(OC)c1O [Etoposide]	Very Slightly	–	–
CN1CCCC(n2nc(Cc3ccc(Cl)cc3)c3ccccc3c2=O)CC1 (stereo not shown) [Azelastine]	Insoluble	–	–
OCCN(CCO)c1nc(N2CCCCC2)c2nc(N(CCO)CCO)nc(N3CCCCC3)c2n1 [Dipyridamole]	Slightly	–	–
Cc1ccc(-c2nc3ccc(C)cn3c2CC(=O)N(C)C)cc1 [Zolpidem]	Sparingly	–	–
CC(C)(C)c1ccc(C(O)CCCN2CCC(C(O)(c3ccccc3)c3ccccc3)CC2)cc1 (stereo not shown) [Terfenadine]	Slightly	–	–
CCOC(=O)[C@H](CCc1ccccc1)N[C@@H](C)C(=O)N1Cc2ccccc2C[C@H]1C(=O)O [Quinapril]	Insoluble	–	–
CO/N=C(\C(=O)N[C@@H]1C(=O)N2C(C(=O)O)=C(COC(C)=O)CS[C@H]12)c1csc(N)n1 [Cefotaxime]	Sparingly	–	–
CC(C(=O)O)c1ccc(-c2ccccc2)c(F)c1 (stereo not shown) [Flurbiprofen]	Slightly	–	–
CC(=O)S[C@@H]1CC2=CC(=O)CC[C@]2(C)[C@H]2CC[C@@]3(C)[C@@H](CC[C@@]34CCC(=O)O4)[C@H]12 [Spironolactone]	–	Insoluble	–
CC(CCc1ccc(O)cc1)NCCc1ccc(O)c(O)c1 (stereo not shown) [Dobutamine]	Sparingly	–	–
CC1CC(OC(=O)C(O)c2ccccc2)CC(C)(C)C1 (stereo not shown) [Cyclandelate]	–	Insoluble	Bioavailability ([1]; in words): Low
Cc1nnc2n1-c1ccc(Cl)cc1C(c1ccccc1)=NC2 [Alprazolam]	Insoluble	–	–
CN[C@H]1CC[C@@H](c2ccc(Cl)c(Cl)c2)c2ccccc21 [Sertraline]	Slightly	Slightly soluble	–
COc1ccc(CCN2CCC(Nc3nc4ccccc4n3Cc3ccc(F)cc3)CC2)cc1 [Astemizole]	Insoluble	Insoluble	Bioavailability ([1]; in words): Low-moderate
Cc1c(OCC(F)(F)F)ccnc1C[S+]([O-])c1nc2ccccc2[nH]1 (stereo not shown) [Lansoprazole]	Insoluble	–	–
CC1=C(/C=C/C(C)=C/C=C/C(C)=C\C(=O)O)C(C)(C)CCC1 [Isotretinoin]	Insoluble	–	–
CCOC(=O)[C@H](CCc1ccccc1)N[C@@H](C)C(=O)N1CCC[C@H]1C(=O)O [Enalapril]	Sparingly	–	–
OC(Cn1cncn1)(Cn1cncn1)c1ccc(F)cc1F [Fluconazole]	Slightly	–	–
CCCCCc1cc(O)c2c(c1)OC(C)(C)[C@@H]1CCC(C)=C[C@@H]21 [Dronabinol]	–	Insoluble	Bioavailability ([1]; in vivo): Low 10-20%)
C[C@@](Cc1ccc(O)c(O)c1)(NN)C(=O)O [Carbidopa]	Slightly	–	–
C=CCC1(CC(C)C)C(=O)NC(=O)NC1=O [Butalbital]	Insoluble	–	–
CN1CCN(C2=Nc3cc(Cl)ccc3Nc3ccccc32)CC1 [Clozapine]	Slightly	–	–

Structure (SMILES)	Solubility In Water [2]	Solubility In Water [3]	further results
OCCN1CCN(CCCN2c3ccccc3Sc3ccc(C(F)(F)F)cc32)CC1 [Fluphenazine]	–	Insoluble	–
O=[N+]([O-])O[C@H]1CO[C@H]2[C@@H]1OC[C@H]2O[N+](=O)[O-] [Isosorbide dinitrate]	Sparingly	Sparingly soluble	–
CO[C@]12C[C@@H](COC(=O)c3cncc(Br)c3)CN(C)[C@@H]1Cc1cn(C)c3cccc2c13 [Nicergoline]	Insoluble	–	–
CC(C)(C)NC(=O)[C@H]1CC[C@H]2[C@@H]3CC[C@H]4NC(=O)C=C[C@]4(C)[C@H]3CC[C@]12C [Finasteride]	Insoluble	–	–
CN1CCC[C@@H]1CCO[C@](C)(c1ccccc1)c1ccc(Cl)cc1 [Clemastine fumarate]	–	Slightly soluble	–
OC(CCN1CCCCC1)(c1ccccc1)C1CC2C=CC1C2 (stereo not shown) [Biperiden]	–	Sparingly soluble	–
OCCN1CCN(CCCN2c3ccccc3Sc3ccc(Cl)cc32)CC1 [Perphenazine]	–	–	Bioavailability ([1]; in words): Low
C#C[C@]1(O)CC[C@H]2[C@@H]3CCC4=Cc5oncc5C[C@]4(C)[C@H]3CC[C@@]21C [Danazol]	–	–	Bioavailability ([1]; in words): Low
COc1ccc2[nH]c([S+]([O-])Cc3ncc(C)c(OC)c3C)nc2c1 (stereo not shown) [Omeprazole]	Slightly	–	–
CCOC(=O)C1=C(C)NC(C)=C(C(=O)OC)C1c1cccc(Cl)c1Cl (stereo not shown) [Felodipine]	Insoluble	Insoluble	–
C[C@]12CC[C@H]3[C@@H](CCC4=CC(=O)CC[C@@]43C)[C@@H]1CC[C@@H]2O [Testosterone]	–	Insoluble	Bioavailability ([1]; in words): Low
COc1cc2nc(N3CCN(C(=O)C4COc5ccccc5O4)CC3)nc(N)c2cc1OC (stereo not shown) [Doxazosin]	Slightly	–	–
CN1C(C(=O)Nc2ccccn2)=C(O)c2ccccc2S1(=O)=O [Piroxicam]	Sparingly	–	–
NC(N)=Nc1nc(CSCCC(N)=NS(N)(=O)=O)cs1 [Famotidine]	Slightly	Slightly soluble	–
CC(=O)N1CCN(c2ccc(OCC3COC(Cn4ccnc4)(c4ccc(Cl)cc4Cl)O3)cc2)CC1 (stereo not shown) [Ketoconazole]	Insoluble	–	–
CC(=O)OC[C@H]1O[C@@H]([S-])[C@H](OC(C)=O)[C@@H](OC(C)=O)[C@@H]1OC(C)=O.CCP(CC)CC.[Au+] [Auranofin]	–	Slightly soluble	Bioavailability ([1]; in vivo): Low (15-25%)
CCc1cccc2c3c([nH]c12)C(CC)(CC(=O)O)OCC3 (stereo not shown) [Etodolac]	Insoluble	–	–
CCOC(=O)[C@H](CCc1ccccc1)N[C@@H](C)C(=O)N1[C@H](C(=O)O)C[C@@H]2CCC[C@@H]21 [Ramipril]	Insoluble	–	–
NC(=O)N1c2ccccc2C=Cc2ccccc21 [Carbamazepine]	Insoluble	–	–
Cc1cccc(Nc2ccccc2C(=O)O)c1C [Mefenamic acid]	Slightly	–	–
O=C1NC(=O)C(c2ccccc2)(c2ccccc2)N1 [Phenytoin]	Insoluble	–	–
COc1ccc2cc(CCC(C)=O)ccc2c1 [Nabumetone]	Insoluble	Insoluble	–
C[C@@H]1C[C@H]2[C@@H]3CCC4=CC(=O)C=C[C@]4(C)[C@@]3(Cl)[C@@H](O)C[C@]2(C)[C@@]1(O)C(=O)CCl [Mometasone]	Insoluble	–	–
COCCCC/C(=N\OCCN)c1ccc(C(F)(F)F)cc1 [Fluvoxamine]	Sparingly	–	–
